# Test results reported in patent US20250195452A1, “ER-BETA ESTROGENIC COMPOUNDS AND METHODS OF USE” (laterion, Inc., priority 2022, published 2025).
# Entries after “also recorded” stand apart in the source; their conditions may differ.
# Assays:
# ERα = target: T1, ERα (Homo sapiens, UniProt P03372); experiment: Luciferase activity of ligands on the activation of the NKG2E ERE in U2OS-ERα cells; format: cell-based; details: for Activity in ERα U2OS cells: indicated micromolar concentrations, 24 hours; for Activation of ERα (NKG2E ERE luciferase activity): U2OS-ERα cells
# T1 construct: expressed in transfected cells; host or cells: U2OS
# T1 sequence (P03372 1-595): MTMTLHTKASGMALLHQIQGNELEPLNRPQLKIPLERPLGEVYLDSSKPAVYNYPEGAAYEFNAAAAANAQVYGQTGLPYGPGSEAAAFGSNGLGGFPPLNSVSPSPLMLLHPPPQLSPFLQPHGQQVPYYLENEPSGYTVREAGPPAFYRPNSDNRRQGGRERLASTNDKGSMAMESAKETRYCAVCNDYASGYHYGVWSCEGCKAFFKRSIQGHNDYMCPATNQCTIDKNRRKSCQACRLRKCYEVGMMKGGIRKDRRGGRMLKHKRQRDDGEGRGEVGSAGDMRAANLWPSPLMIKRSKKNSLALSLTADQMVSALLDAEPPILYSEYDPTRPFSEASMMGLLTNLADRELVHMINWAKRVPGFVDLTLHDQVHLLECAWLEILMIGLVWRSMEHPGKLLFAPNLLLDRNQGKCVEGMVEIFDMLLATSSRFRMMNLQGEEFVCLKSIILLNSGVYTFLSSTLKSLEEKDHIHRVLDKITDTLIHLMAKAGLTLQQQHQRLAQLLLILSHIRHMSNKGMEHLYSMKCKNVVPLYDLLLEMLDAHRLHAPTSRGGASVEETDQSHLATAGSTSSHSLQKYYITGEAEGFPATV
# From the text: (§1) U2OS cells (wild type) were maintained in 5% charcoal-dextran stripped FBS.
# ERβ = target: T2, ERβ (Homo sapiens, UniProt Q92731); experiment: Luciferase activity in U2OS cells transfected with NKG2E-TK-Luc and ERβ; format: cell-based; details: 200 nM
# T2 construct: expressed in transfected cells; host or cells: U2OS
# Description: as §1
# Luciferase activity for each of the tested compounds was recorded.
# GRE-TK-Luk, GR, and ERβ = experiment: Luciferase activity in GRE-TK-Luc-transfected U2OS-ERβ cells with doxycycline and hydrocortisone; format: cell-based; details: HC 100 nM; compounds at 0.5, 1, 2.5 and 5 μM; doxycycline
# Description: Example 12: Luciferase Activity in GRE-TK-Luc-Transfected U2OS-ERβ cells with doxycycline. Doxycycline-dependent U2OS cells were transfected with GRE-TK-Luk, GR, and ERβ in the presence of hydrocortisone (HC, 100 nM) alone or in combination with Liquiritigenin, A10, A13, and A15. Luciferase activity for each of the compounds at 0.5, 1, 2.5 and 5 μM concentration was recorded.
# [1] = tested on: MCF-7 breast cancer cells; experiment: Effects of ERβ compounds on breast cancer tumor formation (histology, FIG. 16A-B); format: in vivo; details: in comparison to estradiol
# [2] = Effects of ERβ compounds on uterine weight (histology, FIG. 16A-B); format: in vivo; details: in comparison to estradiol
# From the text: Example 11: Effects of ERβ compounds on uterine and breast cancer cells.
# T2 sequence (Q92731 whole entry): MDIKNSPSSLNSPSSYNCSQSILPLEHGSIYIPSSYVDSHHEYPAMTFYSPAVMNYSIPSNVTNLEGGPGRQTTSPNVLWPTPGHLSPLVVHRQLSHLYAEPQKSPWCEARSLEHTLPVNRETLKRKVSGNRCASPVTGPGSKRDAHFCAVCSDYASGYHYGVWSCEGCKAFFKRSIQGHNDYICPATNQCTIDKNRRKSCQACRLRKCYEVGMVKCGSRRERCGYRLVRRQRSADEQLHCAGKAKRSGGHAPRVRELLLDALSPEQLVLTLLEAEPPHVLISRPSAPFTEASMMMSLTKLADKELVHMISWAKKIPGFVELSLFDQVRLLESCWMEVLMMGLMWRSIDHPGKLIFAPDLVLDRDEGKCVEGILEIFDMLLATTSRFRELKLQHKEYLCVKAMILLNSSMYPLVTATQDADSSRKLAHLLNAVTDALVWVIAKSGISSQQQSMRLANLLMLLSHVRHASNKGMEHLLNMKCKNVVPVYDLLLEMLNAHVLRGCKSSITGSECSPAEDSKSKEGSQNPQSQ
Activity in ERα U2OS cells (ERα),Activation of ERβ (NKG2E-TK-Luc luciferase activity) (ERβ),Compound,further results
little or no activity,–,"O=c1c(O)c(-c2ccc(O)cc2)oc2ccccc12 [3,4′-Dihydroxyflavone]",–
little or no activity,activate ERβ,"O=c1cc(-c2ccc(O)cc2)oc2cccc(O)c12 [5,4′-Dihydroxyflavone]",–
little or no activity,activate ERβ,"O=c1cc(-c2ccc(O)cc2)oc2ccc(O)cc12 [6,4′-Dihydroxyflavone]",Activation of ERα (NKG2E ERE luciferase activity) (ERα; 1 μM): activate ERα
little or no activity,–,COc1c(O)cc2oc(-c3ccc(O)c(O)c3)cc(=O)c2c1O [6-methoxyluteolin],–
little or no activity,–,"O=c1cc(-c2ccccc2O)oc2cc(O)ccc12 [7,2′-Dihydroxyflavone]",–
little or no activity,–,"O=c1cc(-c2cccc(O)c2)oc2cc(O)ccc12 [7,3′-Dihydroxyflavone]",–
–,–,"O=C(/C=C/c1cccc(O)c1)c1ccc(O)c(O)c1O [A10, (E)-3-(3-hydroxyphenyl)-1-(2,3,4-trihydroxyphenyl) prop-2-en-1-one]","Effect on hydrocortisone (HC) induced luciferase activity (GRE-TK-Luk, GR, and ERβ): attenuated the effect of HC"
–,–,"O=C(/C=C/c1ccc(O)cc1)c1ccccc1 [A15, (E)-3-(4-hydroxyphenyl)-1-phenylprop-2-en-1-one]","Effect on hydrocortisone (HC) induced luciferase activity (GRE-TK-Luk, GR, and ERβ): attenuated the effect of HC"
–,activate ERβ,O=c1cc(-c2ccc(O)cc2)oc2cc(O)cc(O)c12 [Apigenin],–
little or no activity,–,COc1ccc(-c2coc3cc(O)ccc3c2=O)cc1O [Calycosin],Breast cancer tumor formation ([1]; listed as IATERB6): do not increase uterine weight or cause breast cancer tumor formation; also recorded: do not increase uterine breast cancer tumor formation; Uterine weight [2]: do not increase uterine weight
little or no activity,–,Oc1ccc([C@H]2COc3cc(O)ccc3C2)cc1 [Equol],Activation of ERα (NKG2E ERE luciferase activity) (ERα; 1 μM): activate ERα
little or no activity,–,O=c1c(O)c(-c2ccccc2)oc2cc(O)cc(O)c12 [Galangin],–
little or no activity,–,O=c1cc(-c2ccc(O)c(O)c2)oc2cc(O)cc(O)c12 [Luteolin],–
little or no activity,activate ERβ,O=C1C[C@@H](c2ccc(O)cc2)Oc2cc(O)cc(O)c21 [Naringenin],–
little or no activity,activate ERβ,C=C[C@H](/C=C\c1ccc(O)cc1)c1ccc(O)cc1 [Nyasol],Breast cancer tumor formation ([1]; listed as IATERB5): do not increase uterine weight or cause breast cancer tumor formation; also recorded: do not increase uterine breast cancer tumor formation; Activation of ERα (NKG2E ERE luciferase activity) (ERα; 1 μM): activate ERα; Uterine weight [2]: do not increase uterine weight
little or no activity,–,COc1c(O)cc(O)c2c(=O)cc(-c3ccccc3)oc12 [Wogonin],–

Compound,Activity in ERα U2OS cells (ERα),Activation of ERβ (NKG2E-TK-Luc luciferase activity) (ERβ),further results
"O=c1cc(-c2ccc(O)cc2)oc2cc(O)ccc12 [7,4′-Dihydroxyflavone]",little or no activity,activate ERβ,Activation of ERα (NKG2E ERE luciferase activity) (ERα; 5 μM): activate ERα
"O=C(/C=C/c1ccc(O)cc1)c1ccc(O)cc1 [Analog 13, (E)-1,3-bis(4-hydroxyphenyl) prop-2-en-1-one]",–,activate ERβ,"Activation of ERα (NKG2E ERE luciferase activity) (ERα; 5 μM): activate ERα; Effect on hydrocortisone (HC) induced luciferase activity (GRE-TK-Luk, GR, and ERβ): attenuated the effect of HC"
O=C1C[C@@H](c2ccc(O)cc2)Oc2cc(O)ccc21 [Liquiritigenin],little or no activity,–,"Breast cancer tumor formation ([1]; listed as IATERB7): do not increase uterine weight or cause breast cancer tumor formation; also recorded: do not increase uterine breast cancer tumor formation; Activation of ERα (NKG2E ERE luciferase activity) (ERα; 5 μM): activate ERα; Uterine weight [2]: do not increase uterine weight; Effect on hydrocortisone (HC) induced luciferase activity (GRE-TK-Luk, GR, and ERβ): attenuated the effect of HC"
Broussonin A,little or no activity,–,Activation of ERα (NKG2E ERE luciferase activity) (ERα; 1 μM): activate ERα
